Assay results reported in ChEMBL document CHEMBL2146469, “Mechanisms involved in the antinociceptive effects of 7-hydroxycoumarin” (J Nat Prod, 2011).
Activity calls are given as the source filed them.

What was measured:
Mus musculus [1] = species on record: Mus musculus; details: Swiss, 5 mg/kg
Description: Inhibition of carrageenan-induced PGE2 production in Swiss mouse at 5 mg/kg, po dosed 45 mins before carrageenan dosing measured 3 hrs post carrageenan challenge by ELISA

Mus musculus [2] = experiment: Antinociceptive activity in Swiss mouse inflammatory pain model assessed as reduction in hyperalgesia at 0.5 mg/kg, sc dosed once daily for 7 days dosed 45 mins before carrageenan dosing measured 3 hrs post carrageenan challenge; type: functional, organism-based; design: dose 0.5 mg/kg
Mus musculus [3] = experiment: Antinociceptive activity in Swiss mouse inflammatory pain model assessed as reduction in paw edema at 2 mg/kg, sc dosed once daily for 7 days dosed 45 mins before complete Freund's adjuvant dosing measured post complete Freund's adjuvant challenge; type: functional, organism-based; design: dose 2 mg/kg
Mus musculus [4] = experiment: Inhibition of complete Freund's adjuvant-induced TNFalpha production in Swiss mouse at 2 mg/kg, sc dosed 45 mins before complete Freund's adjuvant dosing measured up to 2 hrs post complete Freund's adjuvant challenge by ELISA; type: functional, organism-based; design: dose 2 mg/kg
Mus musculus [5] = experiment: Antinociceptive activity in Swiss mouse inflammatory pain model assessed as reduction in paw withdrawal response at 2 mg/kg, sc dosed once daily for 7 days dosed 45 mins before complete Freund's adjuvant dosing measured post complete Freund's adjuvant challenge; type: functional, organism-based; design: dose 2 mg/kg
Mus musculus [6] = experiment: Antinociceptive activity in Swiss mouse inflammatory pain model assessed as reduction in mechanical hyperalgesia at 2 mg/kg, sc dosed 45 mins before complete Freund's adjuvant dosing measured 4 to 24 hrs post complete Freund's adjuvant challenge by electronic pressure-meter test; type: functional, organism-based; design: dose 2 mg/kg
Mus musculus [7] = experiment: Inhibition of carrageenan-induced neutrophil migration to paw tissue in Swiss mouse at 2 mg/kg, sc dosed 45 mins before carrageenan dosing measured 3 to 4 hrs post […] challenge by myeloperoxidase kinetic colorimetric assay; type: functional, organism-based; design: dose 2 mg/kg
Mus musculus [8] = experiment: Inhibition of complete Freund's adjuvant-induced IL-1beta production in Swiss mouse at 2 mg/kg, sc dosed 45 mins before complete Freund's adjuvant dosing measured up to 24 hrs post complete Freund's adjuvant challenge by ELISA; type: functional, organism-based; design: dose 2 mg/kg
Mus musculus [9] = experiment: Inhibition of complete Freund's adjuvant-induced neutrophil migration to paw tissue in Swiss mouse at 2 mg/kg, sc dosed 45 mins before complete Freund's adjuvant dosing measured 3 to 4 hrs post complete Freund's adjuvant challenge by myeloperoxidase kinetic colorimetric assay; type: functional, organism-based; design: dose 2 mg/kg
Mus musculus [10] = experiment: Antinociceptive activity in Swiss mouse inflammatory pain model assessed as reduction in hyperalgesia at 160 ug/paw dosed 45 mins before PGE2 dosing measured 3 hrs post PGE2 challenge; type: functional, organism-based
Mus musculus [11] = experiment: Gastric toxicity in Swiss mouse assessed as erosion index at 10 mg/kg administered as single dose (reference value: 0 +/- 0 erosion index); type: organism-based; design: dose 10 mg/kg; details: in vivo
Mus musculus [12] = experiment: Gastric toxicity in Swiss mouse assessed as edema index at 10 mg/kg administered as single dose (reference value: 0.6 +/- 0.2 edema index); type: organism-based; design: dose 10 mg/kg; details: in vivo
Mus musculus [13] = experiment: Gastric toxicity in Swiss mouse assessed as necrosis index at 10 mg/kg administered as single dose (reference value: 0 +/- 0 necrosis index); type: organism-based; design: dose 10 mg/kg; details: in vivo
Mus musculus [14] = experiment: Gastric toxicity in Swiss mouse assessed as inflammatory cell index at 10 mg/kg administered as single dose (reference value: 0.2 +/- 0.2 inflammatory cell index); type: organism-based; design: dose 10 mg/kg; details: in vivo
Mus musculus [15] = experiment: Antinociceptive activity in Swiss mouse inflammatory pain model assessed as reduction in paw withdrawal response at 60 mg/kg, po dosed once daily for 7 days dosed 45 mins before complete Freund's adjuvant dosing measured 2 days post compound withdrawal; type: functional, organism-based; design: dose 60 mg/kg
Mus musculus [16] = experiment: Toxicity in Swiss mouse assessed as kidney weight changes per 10 gram of body weight at 60 mg/kg, po dosed once daily for 7 days (reference value: 0.06 +/- 0.00 g/10 g body weight); type: organism-based; design: dose 60 mg/kg, route oral; details: in vivo, 168 h
Mus musculus [17] = experiment: Antinociceptive activity in Swiss mouse inflammatory pain model assessed as reduction in hyperalgesia at 60 mg/kg, po dosed once daily for 7 days dosed 45 mins before PGE2 dosing measured 3 hrs post PGE2 challenge; type: functional, organism-based; design: dose 60 mg/kg
Mus musculus [18] = experiment: Toxicity in Swiss mouse assessed as creatinine level at 60 mg/kg, po dosed once daily for 7 days (reference value: 0.26 +/- 0.05 mg/dL); type: organism-based; design: dose 60 mg/kg, route oral; details: in vivo, 168 h
Mus musculus [19] = experiment: Gastric toxicity in Swiss mouse assessed as erosion index at 60 mg/kg administered daily with single dose (reference value: 0 +/- 0 erosion index); type: organism-based; design: dose 60 mg/kg; details: in vivo
Mus musculus [20] = experiment: Effect on baseline nociceptive threshold in Swiss mouse inflammatory pain model at 30 to 120 mg/kg, po dosed 45 mins before complete Freund's adjuvant dosing measured 4 to 24 hrs post complete Freund's adjuvant challenge by electronic pressure-meter test; type: functional, organism-based
Mus musculus [21] = experiment: Inhibition of complete Freund's adjuvant-induced neutrophil migration to paw tissue in Swiss mouse at 60 mg/kg, po dosed 45 mins before complete Freund's adjuvant dosing measured 3 to 4 hrs post complete Freund's adjuvant challenge by myeloperoxidase kinetic colorimetric assay; type: functional, organism-based; design: dose 60 mg/kg
Mus musculus [22] = experiment: Toxicity in Swiss mouse assessed as corporal mass changes at 60 mg/kg, po dosed once daily for 7 days (reference value: 0.58 +/- 0.03 g); type: organism-based; design: dose 60 mg/kg, route oral; details: in vivo, 168 h
Mus musculus [23] = experiment: Toxicity in Swiss mouse assessed as heart weight changes per 10 gram of body weight at 60 mg/kg, po dosed once daily for 7 days (reference value: 0.05 +/- 0.00 g/10 g body weight); type: organism-based; design: dose 60 mg/kg, route oral; details: in vivo, 168 h
Mus musculus [24] = experiment: Gastric toxicity in Swiss mouse assessed as edema index at 60 mg/kg administered daily with single dose (reference value: 0.6 +/- 0.2 edema index); type: organism-based; design: dose 60 mg/kg; details: in vivo
Mus musculus [25] = experiment: Gastric toxicity in Swiss mouse assessed as inflammatory cell index at 60 mg/kg administered daily with single dose (reference value: 0.2 +/- 0.2 inflammatory cell index); type: organism-based; design: dose 60 mg/kg; details: in vivo
Mus musculus [26] = experiment: Inhibition of carrageenan-induced PGE2 production in Swiss mouse at 60 mg/kg, po dosed 45 mins before carrageenan dosing measured 3 hrs post carrageenan challenge by ELISA; type: functional, organism-based; design: dose 60 mg/kg
Mus musculus [27] = experiment: Antinociceptive activity in Swiss mouse inflammatory pain model assessed as reduction in mechanical hyperalgesia at 30 to 120 mg/kg, po dosed 45 mins before complete Freund's adjuvant dosing measured 2 hrs post complete Freund's adjuvant challenge by electronic pressure-meter test; type: functional, organism-based
Mus musculus [28] = experiment: Antinociceptive activity in Swiss mouse inflammatory pain model assessed as reduction in mechanical hyperalgesia at 30 to 120 mg/kg, po dosed 45 mins before complete Freund's adjuvant dosing measured 6 hrs post complete Freund's adjuvant challenge by electronic pressure-meter test; type: functional, organism-based
Mus musculus [29] = experiment: Antinociceptive activity in Swiss mouse inflammatory pain model assessed as reduction in mechanical hyperalgesia at 30 to 120 mg/kg, po dosed 45 mins before complete Freund's adjuvant dosing measured 24 hrs post complete Freund's adjuvant challenge by electronic pressure-meter test; type: functional, organism-based
Mus musculus [30] = experiment: Inhibition of carrageenan-induced neutrophil migration to paw tissue in Swiss mouse at 60 mg/kg, po dosed 45 mins before carrageenan dosing measured 3 to 4 hrs post […] challenge by myeloperoxidase kinetic colorimetric assay; type: functional, organism-based; design: dose 60 mg/kg
Mus musculus [31] = experiment: Antinociceptive activity in Swiss mouse inflammatory pain model assessed as reduction in hyperalgesia at 120 mg/kg, po dosed once daily for 7 days dosed 45 mins before PGE2 dosing measured 3 hrs post PGE2 challenge; type: functional, organism-based; design: dose 120 mg/kg
Mus musculus [32] = experiment: Antinociceptive activity in Swiss mouse inflammatory pain model assessed as reduction in paw edema at 60 mg/kg, po dosed once daily for 7 days dosed 45 mins before complete Freund's adjuvant dosing measured post complete Freund's adjuvant challenge; type: functional, organism-based; design: dose 60 mg/kg
Mus musculus [33] = experiment: Toxicity in Swiss mouse assessed as total leukocytes level at 60 mg/kg, po dosed once daily for 7 days (reference value: 5.9 +/- 0.8 10^3/mL); type: organism-based; design: dose 60 mg/kg, route oral; details: in vivo, 168 h
Mus musculus [34] = experiment: Antinociceptive activity in Swiss mouse inflammatory pain model assessed as reduction in hyperalgesia at 60 mg/kg, po dosed once daily for 7 days dosed 45 mins before carrageenan dosing measured 3 hrs post carrageenan challenge; type: functional, organism-based; design: dose 60 mg/kg
Mus musculus [35] = experiment: Toxicity in Swiss mouse assessed as liver weight changes per 10 gram of body weight at 60 mg/kg, po dosed once daily for 7 days (reference value: 0.73 +/- 0.07 g/10 g body weight); type: organism-based; design: dose 60 mg/kg, route oral; details: in vivo, 168 h
Mus musculus [36] = experiment: Antinociceptive activity in Swiss mouse inflammatory pain model assessed as reduction in paw withdrawal response at 60 mg/kg, po dosed once daily for 7 days dosed 45 mins before complete Freund's adjuvant dosing measured post complete Freund's adjuvant challenge; type: functional, organism-based; design: dose 60 mg/kg
Mus musculus [37] = experiment: Inhibition of complete Freund's adjuvant-induced TNFalpha production in Swiss mouse at 60 mg/kg, po dosed 45 mins before complete Freund's adjuvant dosing measured up to 2 hrs post complete Freund's adjuvant challenge by ELISA; type: functional, organism-based; design: dose 60 mg/kg
Mus musculus [38] = experiment: Inhibition of complete Freund's adjuvant-induced IL-1beta production in Swiss mouse at 60 mg/kg, po dosed 45 mins before complete Freund's adjuvant dosing measured up to 24 hrs post complete Freund's adjuvant challenge by ELISA; type: functional, organism-based; design: dose 60 mg/kg
Mus musculus [39] = experiment: Toxicity in Swiss mouse assessed as AST level at 60 mg/kg, po dosed once daily for 7 days (reference value: 145.7 +/- 23.4 UI/L); type: organism-based; design: dose 60 mg/kg, route oral; details: in vivo, 168 h
Mus musculus [40] = experiment: Toxicity in Swiss mouse assessed as ALT level at 60 mg/kg, po dosed once daily for 7 days (reference value: 68.0 +/- 12.8 UI/L); type: organism-based; design: dose 60 mg/kg, route oral; details: in vivo, 168 h
Mus musculus [41] = experiment: Gastric toxicity in Swiss mouse assessed as necrosis index at 60 mg/kg administered daily with single dose (reference value: 0 +/- 0 necrosis index); type: organism-based; design: dose 60 mg/kg; details: in vivo

CS(=O)(=O)Nc1ccc([N+](=O)[O-])cc1Oc1ccccc1
inhibition (Mus musculus [1]): Active

C[C@@H]1C[C@H]2[C@@H]3CCC4=CC(=O)C=C[C@]4(C)[C@@]3(F)[C@@H](O)C[C@]2(C)[C@@]1(O)C(=O)CO
Activity (Mus musculus [2]): Active
Activity (Mus musculus [3]): Active
inhibition (Mus musculus [4]): Active
Activity (Mus musculus [5]): Active
Activity (Mus musculus [6]): Active
inhibition (Mus musculus [7]): Active
inhibition (Mus musculus [8]): Active
inhibition (Mus musculus [9]): Active

Cc1c(N(C)CS(=O)(=O)O)c(=O)n(-c2ccccc2)n1C
Activity (Mus musculus [10]): Active

COc1ccc2c(c1)c(CC(=O)O)c(C)n2C(=O)c1ccc(Cl)cc1 [INDOMETHACIN]
Activity (Mus musculus [11]): 3
Activity (Mus musculus [12]): 2.6
Activity (Mus musculus [13]): 0
Activity (Mus musculus [14]): 4

O=c1ccc2ccc(O)cc2o1 [UMBELLIFERONE]
Activity (Mus musculus [15]): inactive
Activity (Mus musculus [16]): 0.07 g
Activity (Mus musculus [17]): inactive
Activity (Mus musculus [18]): 0.27 mg/dL
Activity (Mus musculus [19]): 0
Activity (Mus musculus [20]): inactive
inhibition (Mus musculus [21]): Active
Activity (Mus musculus [22]): 0.6 g
Activity (Mus musculus [23]): 0.05 g
Activity (Mus musculus [24]): 0.7
Activity (Mus musculus [25]): 0.4
inhibition (Mus musculus [26]): Active
Activity (Mus musculus [27]): Dose-dependent effect
Activity (Mus musculus [28]): Dose-dependent effect
Activity (Mus musculus [29]): Dose-dependent effect
inhibition (Mus musculus [30]): Active
Activity (Mus musculus [31]): inactive
Activity (Mus musculus [32]): Active
Activity (Mus musculus [33]): 6.725 ×10³ /ml
Activity (Mus musculus [34]): Active
Activity (Mus musculus [35]): 0.72 g
Activity (Mus musculus [36]): Active
inhibition (Mus musculus [37]): Active
inhibition (Mus musculus [38]): Active
Activity (Mus musculus [39]): 115 IU/L
Activity (Mus musculus [40]): 51 IU/L
Activity (Mus musculus [41]): 0
